Patent US20150105252A1, “SUBSTITUTED PYRAZOLES AS HERBICIDES” (E I DU PONT DE NEMOURS AND COMPANY, priority 2013, published 2015)

Key:
windgrass [1] = test: Test D postemergence; format: in vivo, Apera spica-venti; conditions: scale 0 to 100
Text: (§1) Seeds of plant species selected from bluegrass (annual bluegrass, Poa annua), blackgrass (Alopecurus myosuroides), canarygrass (littleseed canarygrass, Phalaris minor), chickweed (common chickweed, Stellaria media), galium (catchweed bedstraw, Galium aparine), bromegrass, downy (downy bromegrass, Bromus tectorum), field poppy (Papaver rhoeas), field violet (Viola arvensis), foxtail, green (green foxtail, Setaria viridis), deadnettle (henbit deadnettle, Lamium amplexicaule), ryegrass, Italian (Italian ryegrass, Lolium multiflorum), kochia (Kochia scoparia), lambsquarters (Chenopodium album), oilseed rape (Brassica napus), pigweed (redroot pigweed, Amaranthus retroflexus), chamomile (scentless chamomile, Matricaria inodora), speedwell (bird's-eye speedwell, Veronica persica), barley, spring (spring barley, Hordeum vulgare), wheat, spring (spring wheat, Triticum aestivum), buckwheat, wild (wild buckwheat, Polygonum convolvulus), mustard, wild (wild mustard, Sinapis arvensis), oat, wild (wild oat, Avena fatua), radish, wild (wild radish, Raphanus raphanistrum), windgrass (Apera spica-venti), Russian thistle (Salsola kali), barley, winter (winter barley, Hordeum vulgare), and wheat, winter (winter wheat, Triticum aestivum) were planted into a silt loam soil and treated preemergence with test chemicals formulated in a non-phytotoxic solvent mixture which included a surfactant.
(§2) At the same time, these species were planted in pots containing Redi-Earth® planting medium (Scotts Company, 14111 Scottslawn Road, Marysville, Ohio 43041) comprising spaghnum peat moss, vermiculite, wetting agent and starter nutrients and treated with postemergence applications of the test chemicals formulated in the same manner. Plants ranged in height from 2 to 18 cm (1- to 4-leaf stage). Treated plants and controls were maintained in a controlled growth environment for 14 to 21 days after which time all species were compared to controls and visually evaluated. Plant response ratings, summarized in Table D, are based on a scale of 0 to 100 where 0 is no effect and 100 is complete control. A dash (-) response means no test result.

field poppy [2] = test: Test D preemergence; format: in vivo, Papaver rhoeas; conditions: for Plant response rating, Field Poppy: Preemergence, scale 0 to 100
Text: as §1, §2

wheat, spring = test: Test D postemergence; format: in vivo, Triticum aestivum; conditions: scale 0 to 100
Text: as §1, §2

wheat, winter = test: Test D postemergence; format: in vivo, Triticum aestivum; conditions: scale 0 to 100
Text: as §1, §2

oilseed rape = test: Test D postemergence; format: in vivo, Brassica napus; conditions: scale 0 to 100
Text: as §1, §2

field violet = test: Test D postemergence; format: in vivo, Viola arvensis; conditions: scale 0 to 100
Text: as §1, §2

ryegrass, Italian = test: Test D preemergence; format: in vivo, Lolium multiflorum; conditions: for Plant response rating, Ryegrass, Italian: Preemergence, scale 0 to 100
Text: as §1, §2

speedwell = test: Test D preemergence; format: in vivo, Veronica persica; conditions: for Plant response rating, Speedwell: Preemergence, scale 0 to 100
Text: as §1, §2

windgrass [3] = test: Test D preemergence; format: in vivo, Apera spica-venti; conditions: for Plant response rating, Windgrass: Preemergence, scale 0 to 100
Text: as §1, §2

chamomile = test: Test D postemergence; format: in vivo, Matricaria inodora; conditions: scale 0 to 100
Text: as §1, §2

canarygrass = test: Test D preemergence; format: in vivo, Phalaris minor; conditions: for Plant response rating, Canarygrass: Preemergence, scale 0 to 100
Text: as §1, §2

buckwheat, wild = test: Test D preemergence; format: in vivo, Polygonum convolvulus; conditions: for Plant response rating, Buckwheat, Wild: Preemergence, scale 0 to 100
Text: as §1, §2

field poppy [4] = test: Test D postemergence; format: in vivo, Papaver rhoeas; conditions: scale 0 to 100
Text: as §1, §2

barley, winter = test: Test D postemergence; format: in vivo, Hordeum vulgare; conditions: scale 0 to 100
Text: as §1, §2

barley, spring = test: Test D postemergence; format: in vivo, Hordeum vulgare; conditions: scale 0 to 100
Text: as §1, §2

[5] = 16 g ai/ha, taken as preemergence

Cc1cc(C(=O)NCC(F)(F)F)nn1Cc1ccnc(C(F)(F)F)c1 [Compound 74]
Plant response rating, Windgrass (windgrass [1]; Postemergence, 16 g ai/ha): 0 | Windgrass plant response rating (windgrass [1]; Postemergence, 31 g ai/ha): 0 | Windgrass plant response rating (windgrass [1]; Postemergence, 125 g ai/ha): 5 | Windgrass plant response rating (windgrass [1]; postemergence, 62 g ai/ha): 0 | Plant response rating (scale 0 to 100), Field Poppy (field poppy [2]; [5]): 50 | Plant response rating, Field Poppy (field poppy [2]; 31 g ai/ha): 80 | Plant response rating, Field Poppy (field poppy [2]; 62 g ai/ha): 95 | Plant response rating, Field Poppy (field poppy [2]; 125 g ai/ha): 100 | Plant response rating, Wheat, Spring (wheat, spring; Postemergence, 16 g ai/ha): 0 | Wheat, Spring plant response rating (wheat, spring; Postemergence, 31 g ai/ha): 0 | Wheat, Spring plant response rating (wheat, spring; Postemergence, 125 g ai/ha): 5 | Wheat, Spring plant response rating (wheat, spring; postemergence, 62 g ai/ha): 0 | Plant response rating, Wheat, Winter (wheat, winter; Postemergence, 16 g ai/ha): 0 | Wheat, Winter plant response rating (wheat, winter; Postemergence, 31 g ai/ha): 0 | Wheat, Winter plant response rating (wheat, winter; Postemergence, 125 g ai/ha): 0 | Wheat, Winter plant response rating (wheat, winter; postemergence, 62 g ai/ha): 0 | Plant response rating, Oilseed Rape (oilseed rape; Postemergence, 16 g ai/ha): 15 | Oilseed Rape plant response rating (oilseed rape; Postemergence, 31 g ai/ha): 20 | Oilseed Rape plant response rating (oilseed rape; Postemergence, 125 g ai/ha): 35 | Oilseed Rape plant response rating (oilseed rape; postemergence, 62 g ai/ha): 25 | Plant response rating, Field Violet (field violet; Postemergence, 16 g ai/ha): 25 | Field Violet plant response rating (field violet; Postemergence, 31 g ai/ha): 30 | Field Violet plant response rating (field violet; Postemergence, 125 g ai/ha): 50 | Field Violet plant response rating (field violet; postemergence, 62 g ai/ha): 60 | Plant response rating (scale 0 to 100), Ryegrass, Italian (ryegrass, Italian; [5]): 0 | Plant response rating, Ryegrass, Italian (ryegrass, Italian; 31 g ai/ha): 0 | Plant response rating, Ryegrass, Italian (ryegrass, Italian; 62 g ai/ha): 0 | Plant response rating, Ryegrass, Italian (ryegrass, Italian; 125 g ai/ha): 0 | Plant response rating (scale 0 to 100), Speedwell (speedwell; [5]): 100 | Plant response rating, Speedwell (speedwell; 31 g ai/ha): 100 | Plant response rating, Speedwell (speedwell; 62 g ai/ha): 100 | Plant response rating, Speedwell (speedwell; 125 g ai/ha): 100 | Plant response rating (scale 0 to 100), Windgrass (windgrass [3]; [5]): 0 | Plant response rating, Windgrass (windgrass [3]; 31 g ai/ha): 0 | Plant response rating, Windgrass (windgrass [3]; 62 g ai/ha): 25 | Plant response rating, Windgrass (windgrass [3]; 125 g ai/ha): 35 | Plant response rating, Chamomile (chamomile; Postemergence, 16 g ai/ha): 15 | Chamomile plant response rating (chamomile; Postemergence, 31 g ai/ha): 15 | Chamomile plant response rating (chamomile; Postemergence, 125 g ai/ha): 50 | Chamomile plant response rating (chamomile; postemergence, 62 g ai/ha): 20 | Plant response rating (scale 0 to 100), Canarygrass (canarygrass; [5]): 0 | Plant response rating, Canarygrass (canarygrass; 31 g ai/ha): 0 | Plant response rating, Canarygrass (canarygrass; 62 g ai/ha): 0 | Plant response rating, Canarygrass (canarygrass; 125 g ai/ha): 5 | Plant response rating (scale 0 to 100), Buckwheat, Wild (buckwheat, wild; [5]): 25 | Plant response rating, Buckwheat, Wild (buckwheat, wild; 31 g ai/ha): 35 | Plant response rating, Buckwheat, Wild (buckwheat, wild; 62 g ai/ha): 45 | Plant response rating, Buckwheat, Wild (buckwheat, wild; 125 g ai/ha): 65 | Plant response rating, Field Poppy (field poppy [4]; Postemergence, 16 g ai/ha): 10 | Field Poppy plant response rating (field poppy [4]; Postemergence, 31 g ai/ha): 75 | Field Poppy plant response rating (field poppy [4]; Postemergence, 125 g ai/ha): 20 | Field Poppy plant response rating (field poppy [4]; postemergence, 62 g ai/ha): 30 | Barley, Winter plant response rating (barley, winter; Postemergence, 16 g ai/ha): 0 | Barley, Winter plant response rating (barley, winter; Postemergence, 31 g ai/ha): 0 | Barley, Winter plant response rating (barley, winter; Postemergence, 125 g ai/ha): 5 | Barley, Winter plant response rating (barley, winter; postemergence, 62 g ai/ha): 0 | Barley, Spring plant response rating (barley, spring; Postemergence, 16 g ai/ha): 0 | Barley, Spring plant response rating (barley, spring; Postemergence, 31 g ai/ha): 0 | Barley, Spring plant response rating (barley, spring; Postemergence, 125 g ai/ha): 0 | Barley, Spring plant response rating (barley, spring; postemergence, 62 g ai/ha): 0
